Data: patent US12606536B2, “Bioactive phenolate ionic complexes” (priority 2020, dated 2026)
≈ marks a conversion by molar mass, not a printed value. Counter-ions that a name gives are not always drawn.

Assays:
[1] = Regeneration of thymol from thymol-salts in 0.1 N HCl; type: physicochemical; conditions: 0.1N HCl solution (pH = 1), 30 min, heptane extraction
Description: Experimental procedure for regeneration studies: Regeneration studies were performed for 2-isopropyl-5-methylphenolate-salts in the 0.1 N HCl solution (1 pH) followed by extracting free thymol with heptane. The appropriate amount of the corresponding thymol-salt (Table 12) was brought into the 20 mL glass vial. To this, 10 mL of 0.1 N was added. The resultant mixture was kept in a shaker for 30 min. After 30 min of acid treatment, 10 mL of heptane was added to the reaction mixture. The collected organic layer was separated from the water layer and carefully dried using rotavapor followed by drying under a temperature-controlled hot oven at 35° C. for 12 h.

[2] = Water solubility of CBD metal complexes; type: physicochemical
Description: CBD metal complexes were tested for water solubility (Table 1).

[3] = Oxidation stability (air bubbled through and sun light, HPLC); type: physicochemical; conditions: exposed to air bubbled through and sun light for 24 hours
Description: A solution of CBD in ethanol was exposed to air bubbled through and sun light. […] When the CBD metal complexes were exposed to air bubbled through oxidation and sun light for 24 hours, no change in CBD content is found, as determined by HPLC.

[4] = HPLC analysis of regenerated CBD from CBD-Choline (1:1) at pH 1.0; type: physicochemical; conditions: HCl solution pH = 1.0, 30 min, chloroform extraction
[5] = Pharmacokinetics of CBD after IV administration, freely moving rats; type: in vivo
Description: (§1) And dispersed in water to form a nano dispersion of about 30 nanometer. This dispersion was administered to rats by either IV or orally.
For IV administration: Each molecule was dissolved (2% w/w) in pro-nano lipospheres (PNL) formulation (Table 3). Double-distilled water (DDW) was added to a final CBD concentration of 0.2% w/w in the nano-suspension.
Pharmacokinetics (PK) in rats of Cannabidiol (CBD)-choline (Ch) salt following IV and oral administration: Pharmacokinetic study was performed using the freely moving rats model. For intravenously administration a dosage of 1 mg/kg was given (corrections for the salts are in Tables 4 and 5). Two groups were assigned randomly to be administered with either CBD (n=5) or Ch-CBD (n=4). Systemic blood samples (0.35 mL) were taken at 5-min pre-dose and at 5, 15 30 minutes and 1, 1.5, 2, 4, 6, and 8 hr. post dose.
(§2) The oral formulation was administered to the animals by oral gavage with a dosage of 15 mg/kg (corrections for the salts are in Tables 4 and 5). Two groups were assigned randomly to be administered with either CBD (n=5) or Ch-CBD (n=3). Systemic blood samples (0.35 mL) were taken at 5-min pre-dose and at 0.33, 0.66, 1, 1.5, 2, 4, 6, 8 and 10 hr. post dose. To prevent dehydration, equal volumes of physiological solution were administered following each withdrawal of blood sample. Plasma was separated by centrifugation (4000 rpm, 10 min) and stored at −20° C. pending analysis. Plasma aliquots of 150 μL were spiked with 10 μL of internal standard cannabigerol (CBG; 1 μg/mL). ACN (200 μL) was added to each test tube (tubes A) and vortex-mixed for 1 min. The extraction of CBD and CBG was performed by N-hexane (3 mL) that was added to each test tube (tubes A), followed by 1 min. vortex-mixing. After centrifugation at 4000 rpm for 10 min, the n-hexane organic layer was transferred to fresh glass test tubes (tubes B) and evaporated to dryness (Vacuum Evaporation System, Labconco, Kansas City, MO). Then, tubes B were reconstituted in 80 μL of ACN: water (80:20). The resulting solution (80 μl) was injected into the HPLC-MS system. Column used: XTerra MS C18 Column 3.5 μm 2.1×100 mm column (Waters®, Milford, MA). Mobile phase: an isocratic mobile phase of 20:80 (v/v) 2 mM ammonium acetate/acetonitrile. Diluent: 20:80 (v/v) water/acetonitrile. Flow rate: 0.2 mL/min. Column temperature: 35° C.±5° C. Sample Temperature: 20° C.±5° C. The detection masses (m/z): CBG—312.2 and CBD-313.2, with negative electrospray.
(§3) The amounts found in the plasma for the salts were adjusted with the 0.17 correction factor mentioned in Table 6, to resemble dosage of 1 mg/kg for IV administration and 15 mg/kg for oral administration.

[6] = Pharmacokinetics of CBD after oral administration, freely moving rats; type: in vivo
Description: as §1
For oral administration: Each molecule was dissolved (5% w/w) in pro-nano lipospheres (PNL) formulation (Table 2). Double-distilled water (DDW) was added to a final CBD concentration of 0.5% w/w in the nano-suspension.
as §2, §3

[7] = Reversibility of CBD salts to CBD on acidification; type: physicochemical; conditions: dilute HCl, pH 3; 1H NMR
Description: 1M HCl solution was added dropwise to aqueous solution of CBD-Na until pH of 3 was achieved. […] The ease of reversibility is paramount to the success of this work, as original compounds may be easily reconstituted by a simple chemical process.
For all salts, adding acidic solution such as HCl, convert back the native CBD.

[8] = octanol/water
[9] = NMR
[10] = PO 12 mg/kg semaglutide; for T0.5 of semaglutide: n = 3
Description: All compounds are powders and each material ratio is by mass.
Animals are anesthetized for the period of surgery. An indwelling cannula is placed in the right jugular vein of each animal for systemic blood sampling. The cannula is tunnelled beneath the skin and exteriorized at the dorsal part of the neck. After completion of the surgical procedure, the animals are transferred to individual cages to recover overnight (12-18 h). During said recovery period, food, but not water, is deprived if an oral absorption experiment is conducted. Throughout the experiments, free access to food is available 4 h post oral administration.
Animals are randomly assigned to the different experimental groups. […] Systemic blood samples (0.36 ml) are obtained by intravenous cannula, placed in the jugular vein. In the case of oral administration, samples are taken at 5 minutes pre-dose and at different time points post dose, according to the pharmacokinetic profile (blood will be drawn no more than 10% of rat blood volume). To prevent dehydration, equal volumes of physiological solution are administered to the rats following each blood sampling. Plasma is separated by centrifugation (4000 rpm, 7 minutes, 4 °C) and stored at −20° C. pending analysis. Plasma samples were analyzed by a developed LC-MS method for Semaglutide.
PK parameters were extracted from the data in a semi-logarithmic scale. […] It is further important to mention that the formulations were prepared by mass ratios.
AUC0-∞^# was calculated for infinity by using the terminal slope.

mold = test: Hay bale packed in coated packaging; conditions: after 2 weeks; control bale became moldy
Description: The copper and zinc-thymol salts were incorporated in polystyrene foam, in a hydrogel during their manufacturing and in coating material of potato seeds and hay packaging material. Moreover, the thymol copper was incorporated in polyethylene sheets during melt extrusion. The salts were incorporated in these formulations while thymol could not be incorporated due to its evaporation rate and low melting point. Thymol was constantly released to air over a period of 3 weeks while protecting the hay from microbial contamination.
In a typical experiment, fresh hay was packed with thymol coated and copper-thymol salt coated packaging. After 2 weeks, the control bale became moldy.

various viruses = conditions: plants in polystyrene trays containing the salt; blank trays heavily infected
Description: These trays were used for planting tomato plants contaminated with various viruses.

## 2Na(2-isopropyl-5-methylphenolate)4Zn [Thymol salt 2Na4Zn]
[1]
  % of thymol regenerated: 74%

## C=C(C)[C@@H]1CCC(C)=C[C@H]1c1c(O)cc(CCCCC)cc1O [CBD, cannabidiol]
[2]; water
  solubility: 12.6 µg/mL (≈ 40.1 µM)
[3]
  Change in CBD content: decrease in CBD content
[4]
  CBD regenerat. (%): 100.00%
[5]; IV 1 mg/kg in PNL, n = 5
  T0.5: 1.45 h
[5]; rat, plasma, IV 1 mg/kg in PNL, n = 5
  clearance: 56.3 mL/min/kg
[5]; rat, plasma, IV 1 mg/kg in PNL, n = 5, read-out: Volume of distribution
  Vd: 7.02 L/kg
[5]; rat, CBD in plasma, IV 1 mg/kg in PNL formulation suspended (X10) in water, until 8 hours, n = 5
  AUC(0-inf): 300 ng·h/mL
[6]; PO 15 mg/kg in PNL, n = 5
  T0.5: 1.05 ± 0.46 h
[6]; rat, plasma, PO 15 mg/kg in PNL, calculated for infinity by the terminal slope, n = 5
  AUC(0-inf): 846 ± 321 ng·h/mL
[6]; rat, plasma, PO 15 mg/kg in PNL, calculated using data of CBD in PNL by IV administration, read-out: Fabs (%) (Absolute bioavailability)
  bioavailability: 18.8 ± 7.1%
[6]; rat, plasma, PO 15 mg/kg in PNL, n = 5
  Cmax: 200 ± 79.5 ng/mL
[6]; rat, CBD in plasma, PO 15 mg/kg in PNL formulation suspended (X10) in water, until 10 hours, n = 5, read-out: AUC0-10
  AUC(0-t): 841 ± 319 ng·h/mL

## C=C(C)C1CCC(C)=CC1c1c(O)cc(CCCCC)cc1O (stereo not shown) [CBD-Choline (1:1) salt]
[4]
  CBD regenerat. (%): 67.01%
[4]; listed as CBD-Choline (1:1)
  CBD regenerat. (%): about 67.0%

## C=C(C)C1CCC(C)=CC1c1c([O-])cc(CCCCC)cc1[O-].C[N+](C)(C)CCO.C[N+](C)(C)CCO (stereo not shown) [CBD-Choline]
[7]
  Conversion back to CBD on acidification: successfully regenerated
[5]; IV, MS correction (0.17), PNL, n = 4
  T0.5: 0.98 h
[5]; IV, MW adjustment (0.6), PNL, n = 4
  T0.5: 1.07 h
[5]; rats, IV
  Blood levels after IV compared with CBD: comparable
[6]; PO, MS correction (0.17), n = 3
  T0.5: 1.37 ± 0.47 h
[6]; PO, MW adjustment (0.6), n = 3
  T0.5: 1.37 ± 0.47 h
[8]
  Log P: 1.71

## C=C(C)C1CCC(C)=CC1c1c([O-])cc(CCCCC)cc1[O-].[K+].[K+] (stereo not shown) [CBD-K]
[2]
  Solubility in water: 2000 µg/mL

## C=C(C)C1CCC(C)=CC1c1c([O-])cc(CCCCC)cc1[O-].[Na+].[Na+] (stereo not shown) [CBD-Na]
[2]
  Solubility in water: 10000 µg/mL
[7]
  Conversion back to CBD on acidification: confirmed by ^1H NMR to be CBD

## O=C([O-])CCCCCCCNC(=O)c1ccccc1O.[Na+] [SNAC, Salcaprozate Sodium]
[9]
  Behaviour on reducing the pH to acidic pH (1.2): precipitated

## C[N+](C)(C)CCO.O=C([O-])CCCCCCCNC(=O)c1ccccc1[O-].[Na+] [SNAC-CH]
[10]
  T0.5 of semaglutide: 2.62 ± 0.35 h

## O=C([O-])CCCCCCCNC(=O)c1ccccc1O.[Na+] [SNAC-Na]
[10]
  Semaglutide absorption compared with the SNAC formulation: didn't contribute to the semaglutide absorption

## O=C([O-])CCCCCCCNC(=O)c1ccccc1[O-].[Na+].[Na+] [SNAC-Na]
[10]
  T0.5 of semaglutide: 2.26 ± 1.07 h

## Cc1ccc(C(C)C)c(O)c1 [Thymol salt Copper (II), copper(II) 2-isopropyl-5-methylphenolate]
[1]; listed as Copper (II)
  % of thymol regenerated: 72%
mold
  Mold on hay bale: has not shown any mold

## Cc1ccc(C(C)C)c(O)c1 [Thymol salt Ferrous (II), ferrous (II) 2-isopropyl-5-methylphenolate]
[1]
  % of thymol regenerated: 97%

## Cc1ccc(C(C)C)c([O-])c1.[Li+] [Thymol salt Lithium, lithium 2-isopropyl-5-methylphenolate]
[1]
  % of thymol regenerated: 63%

## Cc1ccc(C(C)C)c([O-])c1.[K+] [Thymol salt Potassium, potassium 2-isopropyl-5-methylphenolate]
[1]
  % of thymol regenerated: 57%

## Cc1ccc(C(C)C)c(O)c1 [Thymol salt Silver, silver 2-isopropyl-5-methylphenolate]
[1]; listed as Silver
  % of thymol regenerated: 57%

## Cc1ccc(C(C)C)c([O-])c1.[Na+] [Thymol salt Sodium, sodium 2-isopropyl-5-methylphenolate]
[1]
  % of thymol regenerated: 68%

## CCCC[N+](CCCC)(CCCC)CCCC [Thymol salt Tetrabutylammonium, tetrabutylammonium 2-isopropyl-5-methylphenolate]
[1]
  % of thymol regenerated: 94%

## Cc1ccc(C(C)C)c(O)c1 [Thymol salt Zinc (II), zinc(II) 2-isopropyl-5-methylphenolate]
[1]; listed as Zinc (II)
  % of thymol regenerated: 59%

## O=C([O-])c1ccccc1.O=C([O-])c1ccccc1.[Cu+2] [copper benzoate]
Various viruses
  Infection of tomato plants: did not demonstrate any infection

## manganese (II) 2-isopropyl-5-methylphenolate [Thymol salt Manganese(II)]
[1]
  % of thymol regenerated: 77%
